In patent US20240217968A1, “PHARMACEUTICAL COMPOUND” (DUKE STREET BIO LIMITED, priority 2021, published 2024):

target: T1, recombinant human Flag-tagged PARP7 (amino acids 456-657) (Homo sapiens, UniProt Q7Z3E1); assay: PARP7 biochemical DELFIA assay (auto-MARylation); conditions: DELFIA readout, IC50 class
T1 construct: recombinant human Flag-tagged PARP7 (amino acids 456-657)
T1 sequence (Q7Z3E1 456-657): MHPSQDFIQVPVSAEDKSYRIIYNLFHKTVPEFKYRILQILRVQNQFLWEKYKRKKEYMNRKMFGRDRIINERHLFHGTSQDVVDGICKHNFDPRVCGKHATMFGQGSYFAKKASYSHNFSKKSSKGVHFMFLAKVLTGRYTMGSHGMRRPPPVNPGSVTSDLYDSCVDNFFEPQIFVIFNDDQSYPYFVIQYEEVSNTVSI
Procedure: A suitable assay may be conducted using 10-30 nM PARP7 (amino acids 456-657), 2 μM biotin-NAD assay solution in 20 mM HEPES (pH 7.5), 100 mM NaCl, 2 mM DTT, 0.1% BSA (w/v), 0.02% Tween (v/v) assay buffer. MARylation may take place for 2-3 h at room temperature and may be detected using a dissociation-enhanced lanthanide fluorescence immunoassay (DELFIA) readout. This assay format has been recently utilised for screening for modulators of PARP7 and other MonoPARP enzymes ([…]. et al. Forced Self-Modification Assays as a Strategy to Screen MonoPARP Enzymes. SLAS Discovery. 25; 241-252, (2020)). A particularly suitable assay is described in the Examples below. Optiplate HB 384-well plates were coated with anti-FLAG antibody, supplied as a 4 mg/ml solution, using a Na2CO3/HCO3 coating buffer at pH 9.6, overnight at 4° C., in order to achieve a final immobilisation per well of 0.3 μg. Wells were then washed 3× in coating wash buffer (PBS/0.05% Tween (v/v)), blocked with 2% BSA (w/v) in coating wash buffer and washed 3 further times prior to assay. For the assay 20 μl of 12.5-37.5 nM recombinant human Flag-tagged PARP7 (amino acids 456-657) was added to each well of the 384-well plate for 30 min at room temperature. 50 nl of test compound in DMSO was added using pintool technology and plates were incubated for a further 30 min at room temperature. 5 μl of 15 μM biotin-NAD^+ assay solution in 20 mM HEPES (pH 7.5), 100 mM NaCl, 2 mM DTT, 0.1% BSA (w/v), 0.02% Tween (v/v) assay buffer was then added and MARylation proceeded for 2-3 h at room temperature prior to the addition of 5 μl of 12 mM NAD^+ quenching solution. After 30 min at room temperature, assay solution was removed and following washing 5 times, 100 μl of a 1:1000 dilution of DELFIA Eu-N1 Streptavidin reagent was added. Plates were then incubated for 30 min at room temperature. Reaction mixture was removed and plates washed 5 times prior to the addition of 25 μl DELFIA enhancement solution. Following incubation for 30 min at room temperature, fluorescence was read on either an Envision or Pherastar FS (Ex337 nm, Em620 nm).

IC50	Compound
≤ 100 nM	CC(COCCC(=O)N1CCN(c2nnc(C(F)(F)F)[nH]2)CC1)n1nc(C(F)(F)F)c2c(=O)[nH]ncc21 (single isomer, unassigned) [Compound 393]
100 to 1000 nM	CC(COCCC(=O)N1CCN(c2noc(C(F)(F)F)n2)CC1)n1nc(C(F)(F)F)c2c(=O)[nH]ncc21 (stereo not shown) [Compound 345]
100 to 1000 nM	CC(COCCC(=O)N1CCN(c2nnc(C(F)(F)F)o2)CC1)n1nc(C(F)(F)F)c2c(=O)[nH]ncc21 (single isomer, unassigned) [Compound 473]
≤ 100 nM	O=C(CCOCCn1c(=O)ccc2c(=O)[nH]ncc21)N1CCN(c2ncc(C(F)(F)F)cn2)CC1 [Compound 413]
100 to 1000 nM	CC(COCCC(=O)N1CCN(c2nc(C#N)co2)CC1)n1nc(C(F)(F)F)c2c(=O)[nH]ncc21 (single isomer, unassigned) [Compound 318]
≤ 100 nM	O=C(OCC1CC1Cn1nc(C(F)(F)F)c2c(=O)[nH]ncc21)N1CCN(c2ncc(C(F)(F)F)cn2)CC1 (stereo not shown) [Compound 492]
≤ 100 nM	CC(COCCC(=O)N1CCN(c2ncc(C#N)o2)CC1)n1nc(C(F)(F)F)c2c(=O)[nH]ncc21 (stereo not shown) [Compound 330]
≤ 100 nM	CC(COCCC(=O)N1CCN(c2ncc(C(F)(F)F)cn2)CC1)c1ccc(Cl)c2c(=O)[nH]ncc12 (stereo not shown) [Compound 400]
≤ 100 nM	N#Cc1cnc(N2CCN(C(=O)CCOCCn3cc(C(F)(F)F)c4c(=O)[nH]ncc43)CC2)s1 [Compound 487]
≤ 100 nM	CC(COCCC(=O)N1CCN(c2ccc(C#N)cn2)CC1)c1ccc(Cl)c2c(=O)[nH]ncc12 (single isomer, unassigned) [Compound 416]
≤ 100 nM	CC(COCCC(=O)N1CCN(c2ccc(Cl)cn2)CC1)n1cc(C(F)(F)F)c2c(=O)[nH]ncc21 (single isomer, unassigned) [Compound 375]
≤ 100 nM	CC(COCCC(=O)N1CCN(c2cnc(C#N)cn2)CC1)n1nc(C(F)(F)F)c2c(=O)[nH]ncc21 (stereo not shown) [Compound 312]
≤ 100 nM	CN(C(=O)COCCn1cc(C(F)(F)F)c2c(=O)[nH]ncc21)C1CCN(c2ncc(C(F)(F)F)cn2)CC1 [Compound 385]
≤ 100 nM	CC(CCOCC(=O)N1CCN(c2ncc(Cl)cn2)CC1)n1nc(C(F)(F)F)c2c(=O)[nH]ncc21 (stereo not shown) [Compound 452]
≤ 100 nM	N#Cc1cnc(N2CCN(C(=O)CCOCCn3nc(C(F)(F)F)c4c(=O)[nH]ncc43)CC2)s1 [Compound 502]
≤ 100 nM	CC(COCCC(=O)N1CCN(c2noc(C(F)(F)F)n2)CC1)n1nc(C(F)(F)F)c2c(=O)[nH]ncc21 (single isomer, unassigned) [Compound 344]
≤ 100 nM	CC(COCCC(=O)N1CCN(c2cc(C(F)(F)F)ccn2)CC1)n1nc(C(F)(F)F)c2c(=O)[nH]ncc21 (stereo not shown) [Compound 351]
≤ 100 nM	CC1CN(c2ncc(C(F)(F)F)cn2)CCN1C(=O)CCOCCn1cc(C(F)(F)F)c2c(=O)[nH]ncc21 (single isomer, unassigned) [Compound 370]
≤ 100 nM	CC(COCCC(=O)N1CCN(c2ccc(C(F)F)cn2)CC1)n1nc(C(F)(F)F)c2c(=O)[nH]ncc21 (stereo not shown) [Compound 342]
≤ 100 nM	O=C(CCOCCn1nc(C2CC2)c2c(=O)[nH]ncc21)N1CCN(c2ncc(C(F)(F)F)cn2)CC1 [Compound 333]
1000 to 10000 nM	O=C(Cn1nc(C(F)(F)F)c2c(=O)[nH]ncc21)N1CCC(C(=O)N2CCN(c3ncc(C(F)(F)F)cn3)CC2)C1 (stereo not shown) [Compound 443]
≤ 100 nM	COc1ccc(N2CCN(C(=O)CCOCC(C)n3nc(C(F)(F)F)c4c(=O)[nH]ncc43)CC2)nc1 (stereo not shown) [Compound 307]
≤ 100 nM	CC(CCOCC(=O)N1CCN(c2ncc(C(F)(F)F)cn2)CC1)n1nc(C(F)(F)F)c2c(=O)[nH]ncc21 (single isomer, unassigned) [Compound 327, 1-(4-(2-oxo-2-(4-(5-(trifluoromethyl)pyrimidin-2-yl)piperazin-1-yl)ethoxy)butan-2-yl)-3-(trifluoromethyl)-1,5-dihydro-4H-pyrazolo[3,4-d]pyridazin-4-one]
≤ 100 nM	O=C(OCCCCn1nc(C(F)(F)F)c2c(=O)[nH]ncc21)N1CCN(c2ncc(C(F)(F)F)cn2)CC1 [Compound 441]

Continued, compound first:

Compound	IC50
CC1CN(c2ncc(C(F)(F)F)cn2)CCN1C(=O)CCOCCc1cccc2c(=O)[nH]ncc12 (stereo not shown) [Compound 87]	≤ 100 nM
N#Cc1ccc(N2CCN(C(=O)CCOCCN3CCCc4c3cn[nH]c4=O)CC2)nc1 [Compound 44]	≤ 100 nM
O=C(CCOCCc1cccc2c(=O)[nH]ncc12)N1CCC(c2ncc(Cl)cn2)CC1 [Compound 115]	100 to 1000 nM
O=C(c1cccc(Cc2cccc3c(=O)[nH]ncc23)c1)N1CCN(c2ncc(C(F)(F)F)cn2)CC1 [Compound 25]	≤ 100 nM
CC(COCCc1cccc2c(=O)[nH]ncc12)C(=O)N1CCN(c2ncc(C(F)(F)F)cn2)CC1 (stereo not shown) [Compound 206]	≤ 100 nM
CC1CN(c2ccc(C#N)cn2)CCN1C(=O)CCOCCc1cccc2c(=O)[nH]ncc12 (stereo not shown) [Compound 85]	≤ 100 nM
O=C(CCOCCc1cc(Cl)cc2c(=O)[nH]ncc12)N1CCN(c2ncc(C(F)(F)F)cn2)CC1 [Compound 80, 7-chloro-5-(2-(3-oxo-3-(4-(5-(trifluoromethyl)pyrimidin-2-yl)piperazin-1-yl)propoxy)ethyl)phthalazin-1(2H)-one]	≤ 100 nM
CC(COCCC(=O)N1CCN(c2ncc(C(F)(F)F)cn2)CC1)n1ncc2c(=O)[nH]ncc21 (stereo not shown) [Compound 169]	100 to 1000 nM
O=C1CCc2cnc(N3CCN(C(=O)CCOCCn4nc(C(F)(F)F)c5c(=O)[nH]ncc54)CC3)nc2N1 [Compound 303]	≤ 100 nM
O=C(CCOCCc1cccc2c(=O)[nH]ncc12)N1CCN(c2ccc(C(F)(F)F)cc2)C(=O)C1 [Compound 207]	100 to 1000 nM
O=C(CCOCCc1cccc2c(=O)[nH]ncc12)N1CCN(c2ncc(C(F)(F)F)cn2)C(CO)C1 (single isomer, unassigned) [Compound 149]	≤ 100 nM
Cc1cnc(N2CCN(C(=O)CCOCC(C)n3nc(C(F)(F)F)c4c(=O)[nH]ncc43)CC2)nc1 (stereo not shown) [Compound 287]	≤ 100 nM
CC(COCCC(=O)N1CCN(c2ncc(C(F)(F)F)cn2)CC1)n1nc(C(F)(F)F)c2c(=O)[nH]ncc21 (single isomer, unassigned) [Compound 176, 1-(1-(3-oxo-3-(4-(5-(trifluoromethyl)pyrimidin-2-yl)piperazin-1-yl)propoxy)propan-2-yl)-3-(trifluoromethyl)-1,5-dihydro-4H-pyrazolo[3,4-d]pyridazin-4-one]	≤ 100 nM
N#Cc1ccc2nc(N3CCN(C(=O)CCOCCn4nc(C(F)(F)F)c5c(=O)[nH]ncc54)CC3)oc2c1 [Compound 218]	≤ 100 nM
Cn1c(N2CCN(C(=O)CCOCCc3cccc4c(=O)[nH]ncc34)CC2)nc2ccccc21 [Compound 214]	≤ 100 nM
CC(OCCCC(=O)N1CCN(c2ncc(C(F)(F)F)cn2)CC1)c1cc(F)cc2c(=O)[nH]ncc12 (stereo not shown) [Compound 129]	≤ 100 nM
O=C(CCOCCn1ccc2c(=O)[nH]cnc21)N1CCN(c2ncc(C(F)(F)F)cn2)CC1 [Compound 53]	100 to 1000 nM
O=C1NCCc2c(OCCOCC(=O)N3CCN(c4ncc(C(F)(F)F)cn4)CC3)cccc21 [Compound 22]	1000 to 10000 nM
N#Cc1ccc(N2CCN(S(=O)(=O)c3cccc(Cc4cccc5c(=O)[nH]ncc45)c3)CC2)nc1 [Compound 39]	1000 to 10000 nM
O=C(CCOCCn1c(CO)cc2c(=O)[nH]ncc21)N1CCN(c2ncc(C(F)(F)F)cn2)CC1 [Compound 125]	≤ 100 nM
O=C(CCOCCn1ccc2c(=O)[nH]ncc21)N1CCN(c2ncc(C(F)(F)F)cn2)CC1 [Compound 10, 1-(2-(3-oxo-3-(4-(5-(trifluoromethyl)pyrimidin-2-yl)piperazin-1-yl)propoxy)ethyl)-1,5-dihydro-4H-pyrrolo[2,3-d]pyridazin-4-one]	≤ 100 nM
O=C(COCCOc1cccc2c(=O)[nH]ncc12)N1CCN(c2ncc(C(F)(F)F)cn2)CC1 [Compound 3]	100 to 1000 nM
O=C1NCc2c(CCOCCC(=O)N3CCN(c4ncc(C(F)(F)F)cn4)CC3)cccc21 [Compound 54]	100 to 1000 nM
CC(OCCCC(=O)N1CCN(c2ncc(C(F)(F)F)cn2)CC1)c1cccc2c(=O)[nH]ncc12 (stereo not shown) [Compound 123]	≤ 100 nM
CC(C)(COCC(=O)N1CCN(c2ncc(C(F)(F)F)cn2)CC1)Oc1cccc2c(=O)[nH]ncc12 [Compound 34]	1000 to 10000 nM
